The supplement of paper PMC11061612

What was measured:
RH-18 (Rhabdomyosarcoma) [1] = experiment: Bliss excess, mean over the matrix (fraction); higher = more synergy
Procedure, shortened: (§1)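 Cell lines grown in DMEM/F12 or RPMI with 10% FBS were plated in 1536-well plates and held 24 hours at 37°C, 5% CO2 before 72 hours of exposure to two-drug dose matrices, with DMSO typically at 0.2%. CellTiter-Glo 2.0 luminescence gave viability, which was converted to inhibition. Vehicle wells were set to 0 and blank wells to 1. Combination Emax is the second-highest inhibition in the matrix, and Bliss excess is the observed combination effect minus the expected EA + EB − EA·EB, where EA and EB are the single-agent effects.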

SIMA (Neuroblastoma) [2] = experiment: as above
Procedure, shortened: as §1

[3] = system: RKO (Colorectal Carcinoma); experiment: combination Emax (second highest fraction inhibited in the dose matrix, 72 h); higher = more inhibition; extreme values may be limits of the assay
Procedure, shortened: as §1

[4] = system: CAL-54 (Kidney Carcinoma); experiment: as above
Procedure, shortened: as §1

[5] = system: MDA-MB-468 (Breast Carcinoma); experiment: as above
Procedure, shortened: as §1

[6] = system: CAL-51 (Breast Carcinoma); experiment: as above
Procedure, shortened: as §1

RH-18 (Rhabdomyosarcoma) [7] = experiment: as above
Procedure, shortened: as §1

SIMA (Neuroblastoma) [8] = experiment: as above
Procedure, shortened: as §1

[9] = system: OC-314 (Ovarian Carcinoma); experiment: as above
Procedure, shortened: as §1

HMV-II (Melanoma) = experiment: as above
Procedure, shortened: as §1

[10] = system: SW626 (Colorectal Carcinoma); experiment: as above
Procedure, shortened: as §1

NCI-H28 (Mesothelioma) = experiment: as above
Procedure, shortened: as §1
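Wherever Bliss excess, mean over the matrix is given: after 72 h of two-drug dosing.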

SMILES | Bliss excess (RH-18 (Rhabdomyosarcoma) [1]) | Bliss excess (SIMA (Neuroblastoma) [2]) | combination Emax [3] | combination Emax [4] | combination Emax [5] | combination Emax [6] | combination Emax (RH-18 (Rhabdomyosarcoma) [7]) | combination Emax (SIMA (Neuroblastoma) [8]) | combination Emax [9] | combination Emax (HMV-II (Melanoma)) | combination Emax [10] | combination Emax (NCI-H28 (Mesothelioma))
CN(C)CCCOc1ccc(-c2ccc3ncc4c(c3c2)n(C2CCOCC2)c(=O)n4C)cn1 [AZD0156] + C=CCn1c(=O)c2cnc(Nc3ccc(N4CCN(C)CC4)cc3)nc2n1-c1cccc(C(C)(C)O)n1 [AZD1775] (first compound max 1 µM, partner max 1 µM) | -0.0645 | -0.006 | 0.719 | 0.642 | 0.42 | 0.728 | 0.337 | 0.873 | 0.515 | 0.401 | 0.508 | 0.434
CN(C)CCCOc1ccc(-c2ccc3ncc4c(c3c2)n(C2CCOCC2)c(=O)n4C)cn1 [AZD0156] + CCN(CCO)CCCOc1ccc2c(Nc3cc(CC(=O)Nc4cccc(F)c4)[nH]n3)ncnc2c1 [AZD2811] (first compound max 1 µM, 7x7, partner max 1 µM) | -0.0253 | -0.0085 | 0.213 | 0.134 | 0.363 | 0.196 | 0.136 | 0.131 | 0.312 | 0.164 | 0.0884 | 0.149
CN(C)CCCOc1ccc(-c2ccc3ncc4c(c3c2)n(C2CCOCC2)c(=O)n4C)cn1 [AZD0156] + C[C@@H]1COCCN1C2=NC(=NC(=C2)C3(CC3)[S@](=N)(=O)C)C4=C5C=CNC5=NC=C4 [AZD6738] (first compound max 1 µM, 7x7, partner max 10 µM) | -0.0312 | 0.074 | 0.879 | 0.65 | 0.527 | 0.95 | 0.343 | 0.9 | 0.869 | 0.335 | 0.566 | 0.452
C=CCn1c(=O)c2cnc(Nc3ccc(N4CCN(C)CC4)cc3)nc2n1-c1cccc(C(C)(C)O)n1 [AZD1775] + C[C@@H]1COCCN1C2=NC(=NC(=C2)C3(CC3)[S@](=N)(=O)C)C4=C5C=CNC5=NC=C4 [AZD6738] (first compound max 1 µM, partner max 10 µM) | -0.0014 | 0.0547 | 0.943 | 0.759 | 0.634 | 0.936 | 0.625 | 0.906 | 0.941 | 0.495 | 0.743 | 0.618
C=CCn1c(=O)c2cnc(Nc3ccc(N4CCN(C)CC4)cc3)nc2n1-c1cccc(C(C)(C)O)n1 [AZD1775] + O=C(c1cc(Cc2n[nH]c(=O)c3ccccc23)ccc1F)N1CCN(C(=O)C2CC2)CC1 [Olaparib] (first compound max 1 µM, partner max 10 µM) | -0.0018 | 0.0028 | 0.719 | 0.679 | 0.484 | 0.811 | 0.401 | 0.721 | 0.631 | 0.401 | 0.573 | 0.421
CCN(CCO)CCCOc1ccc2c(Nc3cc(CC(=O)Nc4cccc(F)c4)[nH]n3)ncnc2c1 [AZD2811] + C=CCn1c(=O)c2cnc(Nc3ccc(N4CCN(C)CC4)cc3)nc2n1-c1cccc(C(C)(C)O)n1 [AZD1775] (first compound max 1 µM, partner max 1 µM) | -0.0471 | -0.0113 | 0.655 | 0.622 | 0.434 | 0.815 | 0.245 | 0.855 | 0.839 | 0.473 | 0.427 | 0.278
CCN(CCO)CCCOc1ccc2c(Nc3cc(CC(=O)Nc4cccc(F)c4)[nH]n3)ncnc2c1 [AZD2811] + C[C@@H]1COCCN1C2=NC(=NC(=C2)C3(CC3)[S@](=N)(=O)C)C4=C5C=CNC5=NC=C4 [AZD6738] (first compound max 1 µM, 7x7, partner max 10 µM) | -0.0336 | -0.0332 | 0.853 | 0.666 | 0.563 | 0.922 | 0.344 | 0.766 | 0.869 | 0.313 | 0.581 | 0.533
CCN(CCO)CCCOc1ccc2c(Nc3cc(CC(=O)Nc4cccc(F)c4)[nH]n3)ncnc2c1 [AZD2811] + O=C(c1cc(Cc2n[nH]c(=O)c3ccccc23)ccc1F)N1CCN(C(=O)C2CC2)CC1 [Olaparib] (first compound max 1 µM, 7x7, partner max 10 µM) | 0.0097 | 0.0206 | 0.276 | 0.223 | 0.413 | 0.314 | 0.257 | 0.213 | 0.487 | 0.203 | 0.213 | 0.229
